Test results taken from patent publication US6632793B1, “Immunological activity for a peptide of the limulus anti-LPS factor” (Centro de Ingenieria Genetica y Biotecnologia, priority 1997, dated 2003).
Where a SMILES comes first, the peptide text is derived from it.

What was measured:
[1] = Cell viability of peritoneal macrophages (MTT reduction); format: cell-based, Balb/c mice; settings: Balb/c, mouse, primary thioglycollate-elicited peritoneal macrophages, 5 μM pre-incubation 18 h, then LPS, read-out: Viability of the cells
Procedure: (§1) Peritoneal elicited cells were obtained from Balb/c mice (CENPALAB, Havana, Cuba). Primary mouse macrophages was collected from the peritoneal cavity 4 days after intraperitoneal injection with 1 ml of 4% Brewer's thioglicollate broth. Cell were maintained in RPMI 1640 supplemented with 10% heat-inactivated fetal bovine serum, 2 mM L-glutamine, 200 units/ml penicillin, and 200 μg/ml streptomycin at 37° C. in 5% CO2/[…].
(§2) Assay for Secretion of NO2-(Jin, F^29, Nathan, C, Radzioch, 0, and Ding, A. Cell, 1997, 88: 417-426). Cells were plated in 96-well plates at 2×10^6 cells /ml in 200 μl of medium and incubated at 37° C. for 2 h, then non-adherent cells were removed by repeated washing with PBS. Macrophage were pre-incubated with 5 μM of LALF peptide during 18 h, afterward were washed with RPMI medium in order to eliminated the peptide. Then the macrophages were treated 72 hr with LPS of E. coli 0111:B4, Sigma (1 μg/ml). Cell viability was assessed by mitochondrial-dependent reduction of MTT to formazan (Szabo^30, c, Mitchell, J A, Gross, S S, Thiemermann, C, and Vane, JR. J. Pharm. Exp. Therap., 1992, 265: 674-80). […] Absorbance at 540 nm was recorded in a microplate reader (SUMA) with sodium nitrite as standards (Green^28, L C, Wagner, D A, Glogowski, J, et al. Anal Biochem 1982; 126: 131-8). […]

TNF-α in mouse serum [2] = experiment: Serum TNF after P. aeruginosa challenge in peptide-treated mice (ELISA); format: in vivo, mice BalB/c; settings: 14 μg i.p. 20 h before P. aeruginosa; 0-240 min; FIG. 4
Procedure: Groups of mice received LALF peptide (14 μg/0.1 ml) or saline control (0.1 ml) intraperitoneally 20 hours prior to infectious challenge. […] Blood was collected for TNF quantification from the retroorbital sinus at the time 0, 20, 40, 60, 90, 120, 180, 240 min in the control group and peptide treated-mice. The concentration of TNF-α in mouse serum was determined using a specific ELISA kindly provided by.
Eight-week-old mice were injected i.p. with 14 μg of peptide in 0.1 ml saline or saline alone. Twenty hours after the mice were injected i.p. with a lethal doses of P. aeruginosa. At 0, 20, 40, 60, 90, 120, 180 and 240 min following the challenge, the mice were bled from the retroorbital sinus and the serum concentration of TNF was measured.

Pseudomona aerukinosa = experiment: Survival in mice model of fulminating Gram-negative peritoneal sepsis; format: in vivo, mice BalB/c
Procedure: A model of fulminating Gram-negative peritoneal sepsis was developed in mice BalB/c to characterize the efficacy of LALF peptide in protecting an immunologically intact host against serious infections. Groups of mice received LALF peptide (14 μg/0.1 ml) or saline control (0.1 ml) intraperitoneally 20 hours prior to infectious challenge. A doses of Pseudomona aerukinosa (2×10^8 bacterial/mice) producing a total mortality of approximately 90% (Browder et al., 1987, Surgery. Vol. 102: 206-214) was used in order to induce an experimental peritonitis. Survivor's mice were counted each 24 hours during 120 hours after bacterial challenge. Survival data were analyzed by statistical test Kaplan-Meyer, the significance analysis was determined using a long-rank test, table 5. Blood was collected for TNF quantification from the retroorbital sinus at the time 0, 20, 40, 60, 90, 120, 180, 240 min in the control group and peptide treated-mice. The concentration of TNF-α in mouse serum was determined using a specific ELISA kindly provided by. Dr. W. Buurman (University Hospital Maastrich, The Netherlands). FIG. 4.

TNF-α in mouse serum [3] = experiment: Serum TNF-α after intravenous injection of peptide in mice (ELISA); format: in vivo, mice BalB/c; settings: 50 μg intravenously; serum at 0 h, 6 h, 24 h and 48 h; FIG. 3
Procedure: This approach was developed in mice BalB/c between 6-8 old. The mice were injected intravenously with 50 μg of peptide in 0.1 ml [2.5 mg/kg of body weight] or saline solution as a control. The behavior of animals was observed each 4 hours during 24 h. Survival was followed for one week. Blood was collected for TNF-α quantification from the retroorbital sinus at the time 0 h. 6 h, 24 h and 48 h in the control group and peptide treated-mice. The concentration of TNF-α in mouse serum was determined using a specific ELISA kindly provided by Dr. W. Buurman (University Hospital Maastrich, The Netherlands).

[4] = tested on: Mengo virus on cell line Hep-2; experiment: Antiviral effect: inhibition of the cytopathic effect of Mengo virus on cell line Hep-2; format: cell-based; settings: for Antiviral effect, 1 / Antiviral effect, 2 / Antiviral effect, 3 / Antiviral effect, Mean: 24 h pre-incubation; for Antiviral effect, 1: experiment 1; for Antiviral effect, 2: experiment 2; for Antiviral effect, 3: experiment 3; for Antiviral effect, Mean: mean of 3
Procedure: Then the cells were washed with saline solution and infected with […] of Mengo virus, provide by Institute of Molecular Biology, University of Zurich, which is multiplied in the cell line L929 murine fibroblasts. 18 h later degree of cell destruction was measured by fixation and staining, generally with crystal violet, for reading of cytophatic effect was used a photometer Ultramicroanalytical System (SUMA). A computer program in Pascal UCSD language for the microcomputer system was developed for all calculations and corrections (Ferrero et al., 1994, Biotecnologia Aplicada. Vol. 1:). In this case serial dilution's of human γ-IFN 70 000 IU/ml (MRI, Freeze-dried Reference Human Recombinant Gamma Interferon) was used as standard in order to define unit of antiviral activity. For this reason the antiviral protection shown by the peptide is related to International Units of γ-IFN (Ul/ml). As a negative control were used different peptides from proteins that bind endotoxin. LPS at 10 ng/ml was used as a positively control because is well known that it induced the production of IFNs (Manthey et al., 1994, J. Immunology. Vol. 153: 2653-2663). One unit of antiviral activity is define as the quantity of IFN able to produce an 50% inhibition of the viral replication.

[5] = tested on: NO production in peritoneal macrophages; experiment: NO2- secretion (Greiss) in LPS-activated peritoneal macrophages pre-incubated with peptide; format: cell-based, Balb/c mice; settings: 5 μM pre-incubation 18 h, then LPS 1 μg/ml 72 h; FIG. 7
Procedure: as §1
as §2, with “Macrophage were pre-incubated with 5 μM of LALF peptide during 18 h, afterward were washed with RPMI medium in order to eliminated the peptide. Then the macrophages were treated 72 hr with LPS of E. coli 0111:B4, Sigma (1 μg/ml).” left out
FIG. 7: Regulatory effect of LALF derived-peptide on NO production in stimulated peritoneal macrophages. […] Levels of NO were measured in the cells cultured supernatants using the Greiss method.

CC[C@H](C)[C@H](NC(=O)[C@H](CCCNC(=N)N)NC(=O)[C@H](Cc1ccc(O)cc1)NC(=O)[C@H](Cc1c[nH]cn1)NC(=O)[C@@H](N)CS)C(=O)N[C@@H](CCCCN)C(=O)N1CCC[C@H]1C(=O)N[C@H](C(=O)N[C@@H](Cc1ccccc1)C(=O)N[C@@H](CCCNC(=N)N)C(=O)N[C@@H](CCCNC(=N)N)C(=O)N[C@@H](CC(C)C)C(=O)N[C@@H](CCCCN)C(=O)N[C@@H](Cc1c[nH]c2ccccc12)C(=O)N[C@@H](CCCCN)C(=O)N[C@@H](Cc1ccc(O)cc1)C(=O)N[C@@H](CCCCN)C(=O)NCC(=O)N[C@@H](CCCCN)C(=O)N[C@@H](Cc1ccccc1)C(=O)N[C@@H](Cc1c[nH]c2ccccc12)C(=O)N[C@@H](CS)C(=O)O)[C@@H](C)O [LALF] (H-CHYRIKPTFRRLKWKYKGKFWC-OH)
viability at 18 h, 5 µM [1]: ≥ 98%
Effect on systemic TNF after bacterial challenge (in words) (TNF-α in mouse serum [2]): induced a decrease of the proinflammatory cytokine TNF
Survival (%) (Pseudomona aerukinosa; 14 μg/0.1 ml intraperitoneally 20 hours prior to challenge with 2×10^8 bacteria/mouse, followed 120 hours): 36%
Protection from lethal bacterial challenge (in words) (Pseudomona aerukinosa; administrated prophylactically): protects mice from lethal bacterial challenge
TNF-α production in vivo (in words) (TNF-α in mouse serum [3]): does not stimulate TNF-α production
Induction of an antiviral state in Hep-2 cells (in words) ([4]; 14 and 28 μg/ml): able to induce an antiviral state
Antiviral effect, 1 ([4]; Hep-2, 14 μg/ml): 35 IU/ml γ-IFN
Antiviral effect, 2 ([4]; Hep-2, 14 μg/ml): 31.7 IU/ml γ-IFN
Antiviral effect, 3 ([4]; Hep-2, 14 μg/ml): 22 IU/ml γ-IFN
Antiviral effect, Mean ([4]; Hep-2, 14 μg/ml): 29.5 IU/ml γ-IFN
Antiviral effect, 1 ([4]; Hep-2, 28 μg/ml): 28.7 IU/ml γ-IFN
Antiviral effect, 2 ([4]; Hep-2, 28 μg/ml): 27 IU/ml γ-IFN
Antiviral effect, 3 ([4]; Hep-2, 28 μg/ml): 31.4 IU/ml γ-IFN
Antiviral effect, Mean ([4]; Hep-2, 28 μg/ml): 28.3 IU/ml γ-IFN
NO production in LPS-activated macrophages (in words) [5]: up regulated
